In patent publication US4952580A, “Pesticidal polyhaloalkene derivatives” (priority 1988, dated 1990):
Where two headings read alike, the source gives them in different places.

What was measured:
[1] = test system: root-knot nematode (Meloidogyne incognita); test: Initial Root-Knot Nematicidal Activity; format: in vivo; settings: 336 h, read-out: Percent Control; for pest or weed control at 0.313 ppm: Table 2, Application Rate 0.313 ppm; for pest or weed control at 0.625 ppm: Table 2, Application Rate 0.625 ppm; for pest or weed control at 1.25 ppm: Table 2, Application Rate 1.25 ppm; for pest or weed control at 5 ppm: Table 2, Application Rate 5.0 ppm; for pest or weed control at 10 ppm: Table 2, Application Rate 10.0 ppm
Outline: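 Compound incorporated into Meloidogyne incognita-infested soil at 10 ppm to 0.078 ppm, then planted with tomato or cucumber seedlings. Root galling scored two weeks after planting as a knot index and converted to percent control, given as averages.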

[2] = test system: root-knot nematode; test: Residual Root-Knot Nematicidal Activity; format: in vivo, Meloidogyne incognita; settings: read-out: Percent Control
Experimental: (§1) Compounds of this invention were tested as follows for nematicidal and anthelmintic activity as dust formulations (initial and residual activity) and as acetone/water formulations (systemic activity). The formulations are described above.
The ability of nematicidal compounds of the invention to control root-knot nematode infestations in soil over a period of time after treatment was evaluated. Dust formulations of test compound (5%) were incorporated into soil samples at test compound rates of 5 and 10 ppm. Subsequently, the treated soil samples were inoculated with nematode inoculum at weekly intervals, and Knot Index and Percent Control determined on seedlings planted in the soil samples. Specifically, soil treated with test compound was placed in 7.6 cm diameter fiber pots and stored in a greenhouse. At one, two and four weeks post-treatment, the appropriate number of pots was infested with root-knot nematode eggs and larvae. A cucumber or tomato seedling was planted in each pot and evaluated approximately two weeks after the soil infestation to obtain the test results reported in Tables 3 and 3a appended.

[3] = test system: lesion nematode; test: Lesion Nematode Test; format: in vivo; settings: Table 5, read-out: Percent Control; for pest or weed control at 5 ppm: rate 5 ppm; for pest or weed control at 2.5 ppm: rate 2.5 ppm
Outline: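 Run as the stunt nematode test but on pea seedlings; compounds applied as dust formulations (initial and residual activity) or acetone/water formulations (systemic activity), with untreated samples as reference. Percent control derived by formula.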

[4] = test system: cyst nematode; test: Cyst Nematode Test; format: in vivo; settings: read-out: Percent Control; for pest or weed control at 5 ppm: Table 6, rate 5 ppm
Experimental: as §1
The procedures was substantially the same as described in the stunt nematode test except soybean seedlings were used. "Percent Control" (Table 6 appended) is as defined in the stunt nematode test results.

[5] = test system: root-knot nematode; test: Soil Mobility against root-knot nematode; format: in vivo, Meloidogyne incognita; settings: 336 h; for pest or weed control at 0.313 ppm: Table 7, 0.313 ppm; for pest or weed control at 0.625 ppm: Table 7, 0.625 ppm; for pest or weed control at 1.25 ppm: Table 7, 1.25 ppm; for pest or weed control at 2.5 ppm: Table 7, 2.5 ppm; for pest or weed control at 10 ppm: Table 7, 10 ppm
Outline: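 Soil mobility of the nematicidal test material was evaluated by placing treated, nematode-infested soil in 8 cm plastic pots stacked above two or more pots of untreated infested soil, each containing a 10 cm^3 sand layer and filter paper discs. Fifteen cm of water was dripped through, pots drained 16-18 hours, then were planted with cucumber or tomato seedlings and scored for Percent Control.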

[6] = test system: stunt nematode; test: Stunt Nematode Test; format: in vivo; settings: 672 h, Table 4, read-out: Percent Control; for pest or weed control at 5 ppm: rate 5 ppm
Experimental: as §1
The procedure was substantially the same as in the […] seedling, with subsequent inoculation of the soil with combined larvae and adult stunt nematodes. The samples were evaulated approximately four weeks after infestation. […] "Percent control" means the difference between average population counts between untreated and treated samples, divided by average population count of untreated sample, multiplied by 100.

[7] = test system: Caenorhabditis elegans; test: C. Elegans Nematode Screening Test and Evaluation (in-vitro); settings: Caenorhabditis elegans
Outline: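 Worms (10-15 per well) in buffer with E. coli food, ampicillin and mycostatin; compound added in DMSO, 2-3 replicates per rate. Incubated 5-6 days at 20° C. Population development scored against untreated wells, noting effects such as reduced egg hatch or molting disruption.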

[8] = 168 h, Table 3, inoculation 1 week after treatment
[9] = 336 h, Table 3, inoculation 2 weeks after treatment
[10] = 672 h, Table 3, inoculation 4 weeks after treatment
[11] = Table 7, 30 ppm, Bottom container, read-out: Percent Control
[12] = Table 7, 30 ppm, Middle container, read-out: Percent Control
[13] = Table 2, Application Rate 2.5 ppm
[14] = Table 7, 30 ppm, Top container, read-out: Percent Control
[15] = Bottom container, read-out: Percent Control
[16] = Middle container, read-out: Percent Control
[17] = Top container, read-out: Percent Control
[18] = read-out: Percent Control, Table 7, 30 ppm, Middle container

O=C(CSCCC(F)=C(F)F)OCCC(F)=C(F)F [Compound 18, (3,4,4-trifluoro-3-butenyl) (3,4,4-trifluoro-3-butenylthio)acetate]
pest or weed control at 0.313 ppm [1]: 0% | pest or weed control at 0.625 ppm [1]: 19% | pest or weed control at 1.25 ppm [1]: 38% | pest or weed control at 5 ppm [1]: 99% | pest or weed control at 10 ppm [1]: 100% | pest or weed control at 10 ppm [2, 8]: 0% | pest or weed control at 10 ppm [2, 9]: 0% | pest or weed control at 10 ppm [2, 10]: 0% | pest or weed control at 5 ppm [3]: 0% | pest or weed control at 5 ppm [4]: 8% | pest or weed control at 30 ppm [5, 11]: 25% | pest or weed control at 30 ppm [5, 12]: 25% | pest or weed control at 30 ppm ([5]; read-out: Percent Control, Table 7, 30 ppm, Top container): 33%

O=C(OCCC(F)=C(F)F)c1ccc([N+](=O)[O-])o1 [Compound 21, (3,4,4-trifluoro-3-butenyl) 5-nitro-2-furancarboxylate]
pest or weed control at 0.313 ppm [1]: 0% | pest or weed control at 0.625 ppm [1]: 8% | pest or weed control at 1.25 ppm [1]: 31% | pest or weed control at 2.5 ppm [1, 13]: 64% | pest or weed control at 5 ppm [2, 8]: 13% | pest or weed control at 5 ppm [2, 9]: 8% | pest or weed control at 5 ppm [2, 10]: 0% | pest or weed control at 2.5 ppm [3]: 54% | pest or weed control at 2.5 ppm [4]: 33% | pest or weed control at 30 ppm [5, 11]: 99% | pest or weed control at 30 ppm [5, 12]: 96% | pest or weed control at 30 ppm [5, 14]: 100%

FC(F)=C(F)CCSC1=NCCS1 [Compound 1, 2-(3,4,4-trifluoro-3-butenylthio)-4,5-dihydrothiazole]
pest or weed control at 0.078 ppm ([1]; Table 2, Application Rate 0.078 ppm): 56% | pest or weed control at 0.313 ppm [1]: 99% | pest or weed control at 0.625 ppm [1]: 100% | pest or weed control at 1.25 ppm [1]: 99% | pest or weed control at 2.5 ppm [1, 13]: 99% | pest or weed control at 5 ppm [1]: 99% | pest or weed control at 10 ppm [1]: 100% | pest or weed control at 0.156 ppm [1]: 95% | pest or weed control at 5 ppm [2, 8]: 99% | pest or weed control at 10 ppm [2, 8]: 98% | pest or weed control at 5 ppm [2, 9]: 63% | pest or weed control at 5 ppm [2, 10]: 25% | pest or weed control at 2.5 ppm [3]: 0% | pest or weed control at 5 ppm [4]: 94% | pest or weed control at 5 ppm ([4]; whole cysts rather than homogenized cysts): 79% | pest or weed control at 5 ppm [6]: 30% | pest or weed control at 10 ppm ([6]; rate 10 ppm): 61% | pest or weed control at 0.313 ppm [5, 15]: 25% | pest or weed control at 0.313 ppm [5, 16]: 75% | pest or weed control at 0.313 ppm [5, 17]: 77% | pest or weed control at 0.625 ppm [5, 15]: 77% | pest or weed control at 0.625 ppm [5, 16]: 98% | pest or weed control at 0.625 ppm [5, 17]: 97% | pest or weed control at 1.25 ppm [5, 15]: 96% | pest or weed control at 1.25 ppm [5, 16]: 99% | pest or weed control at 1.25 ppm [5, 17]: 100% | pest or weed control at 2.5 ppm [5, 15]: 100% | pest or weed control at 2.5 ppm [5, 16]: 100% | pest or weed control at 2.5 ppm [5, 17]: 100% | pest or weed control at 5 ppm ([5]; Table 7, 5 ppm, Bottom container, read-out: Percent Control): 99% | pest or weed control at 5 ppm ([5]; Table 7, 5 ppm, Middle container, read-out: Percent Control): 98% | pest or weed control at 5 ppm ([5]; Table 7, 5 ppm, Top container, read-out: Percent Control): 100% | pest or weed control at 10 ppm ([5]; container 1 (Top), read-out: Percent Control): 100% | pest or weed control at 10 ppm ([5]; container 2, read-out: Percent Control): 100% | pest or weed control at 10 ppm ([5]; container 3, read-out: Percent Control): 100% | pest or weed control at 10 ppm ([5]; container 4, read-out: Percent Control): 99% | pest or weed control at 10 ppm ([5]; container 5, read-out: Percent Control): 97% | pest or weed control at 10 ppm ([5]; container 6 (Bottom), read-out: Percent Control): 42% | pest or weed control at 30 ppm [5, 11]: 85% | pest or weed control at 30 ppm [5, 14]: 97% | pest or weed control at 30 ppm [5, 18]: 95%

FC(F)=C(F)CCSc1nsc(SCCC(F)=C(F)F)n1 [Compound 25, 3,5-di(3,4,4-trifluoro-3-butenylthio)-1,2,4-thiadiazole]
pest or weed control at 0.312 ppm ([1]; Table 2, Application Rate 0.312 ppm): 78% | pest or weed control at 0.625 ppm [1]: 97% | pest or weed control at 1.25 ppm [1]: 97% | pest or weed control at 2.5 ppm [1, 13]: 99% | inhibition at 5 ppm ([7]; Table 9 screen, 5 ppm, read-out: Percent Inhibition of Reproduction): 100% | mortality at 5 ppm ([7]; Table 9 screen, 5 ppm, read-out: Percent Mortality): 75% | mortality at 5 ppm ([7]; Table 10 evaluation, 5 ppm, read-out: Percent Mortality): 100% | inhibition at 1.25 ppm ([7]; Table 10 evaluation, 1.25 ppm, read-out: Percent Inhibition of Reproduction): 17% | mortality at 1.25 ppm ([7]; Table 10 evaluation, 1.25 ppm, read-out: Percent Mortality): 0% | inhibition at 2.5 ppm ([7]; Table 10 evaluation, 2.5 ppm, read-out: Percent Inhibition of Reproduction): 58% | mortality at 2.5 ppm ([7]; Table 10 evaluation, 2.5 ppm, read-out: Percent Mortality): 0% | pest or weed control at 5 ppm ([2]; 168 h, Table 3a, 5% dust, inoculation 1 week post-treatment): 100% | pest or weed control at 5 ppm ([2]; 336 h, Table 3a, 5% dust, inoculation 2 weeks post-treatment): 97% | pest or weed control at 5 ppm ([2]; 672 h, Table 3a, 5% dust, inoculation 4 weeks post-treatment): 98% | pest or weed control at 2.5 ppm [3]: 77% | pest or weed control at 5 ppm [4]: 83% | pest or weed control at 5 ppm ([5]; Table 7a, 5% dust, 5 ppm, BOTTOM container, read-out: Percent Control): 8% | pest or weed control at 5 ppm ([5]; Table 7a, 5% dust, 5 ppm, MIDDLE container, read-out: Percent Control): 69% | pest or weed control at 5 ppm ([5]; Table 7a, 5% dust, 5 ppm, TOP container, read-out: Percent Control): 100%

CSc1nnc(SCCC(F)=C(F)F)s1 [Compound 2, 2-methylthio-5-(3,4,4-trifluoro-3-butenylthio)-1,3,4-thiadiazole]
pest or weed control at 0.313 ppm [1]: 38% | pest or weed control at 0.625 ppm [1]: 84% | pest or weed control at 1.25 ppm [1]: 86% | pest or weed control at 2.5 ppm [1, 13]: 96% | pest or weed control at 5 ppm [1]: 96% | pest or weed control at 10 ppm [1]: 100% | pest or weed control at 2.5 ppm [1]: 95% | pest or weed control at 5 ppm [2, 8]: 98% | pest or weed control at 10 ppm [2, 8]: 77% | pest or weed control at 5 ppm [2, 9]: 38% | pest or weed control at 10 ppm [2, 9]: 56% | pest or weed control at 5 ppm [2, 10]: 42% | pest or weed control at 10 ppm [2, 10]: 69% | pest or weed control at 5 ppm [3]: 0% | pest or weed control at 5 ppm [4]: 70% | pest or weed control at 5 ppm [6]: 72% | pest or weed control at 30 ppm [5, 11]: 25% | pest or weed control at 30 ppm [5, 14]: 42% | pest or weed control at 30 ppm [5, 18]: 33%
